The values that follow come from paper PMC10180197, “Novel Pyrimidine Derivatives as Antioxidant and Anticancer Agents: Design, Synthesis and Molecular Modeling Studies” (Molecules, 2023).

As a reminder, the viability is a read-out of living cells in per cent, often relative to untreated cells.

The nature of data set [1]: Experimental determination of lipophilicity as RM values (RP-TLC). To be noted: methanol/water 70/30 v/v, 24 °C, SD < 10%. The class given is physicochemical. The text has this: Lipophilicity is an important physicochemical parameter of a drug candidate, linking solubility and membrane permeability with the ADMET (absorption, distribution, metabolism, elimination and toxicity) properties and the overall suitability of a molecule. Reversed-phase thin-layer chromatography was the method used to experimentally determine the lipophilic character of the synthesized compounds as RM values (Table 2). Lipophilicity was also theoretically calculated as clog P values using the Bio-Loom program of BioByte Corp (http://www.biobyte.com/, (accessed on 1 March 2023)). An attempt was made to correlate the experimental RM values with the theoretically calculated clog P values (Table 2). […] This disagreement could be attributed to several factors, e.g., different solvation, silanophilic interactions and hydrogen bonding.
Lipophilicity as RM values was determined through reversed-phase TLC (RP-TLC) on silica gel plates impregnated with 5% v/v liquid paraffin in light petroleum ether. Methanol/water mixture (70/30, v/v) was used as mobile phase. Closed chromatography tanks saturated with the mobile phase at 24 °C were used for the development of the plates while the spots were detected under UV light. For the determination of RM values, five individual measurements of Rf values were recorded, and the RM values were derived from the following Equation (1). (1) RM=log1/Rf−1

Data set [2] in a line: Inhibition of AAPH induced linoleic acid peroxidation. How it is done: For the lipid peroxidation study, 2,2′-Azobis(2-methylpropionamidine) dihydrochloride (AAPH) was used as the generator of peroxy radicals and sodium linoleate as the substrate that undergoes peroxidation. The conversion of linoleic acid to 13-hydroperoxy-linoleic acid was recorded at 234 nm. The change of absorbance reflects the possible antioxidant activity of the tested compounds, in comparison with the reference compound, Trolox.
In vitro study was performed as reported previously by our group. AAPH was used as a free radical generator of alkyl peroxyl radicals. For this experimental procedure, 10 μL of the tested compound (from the stock solution), 10 μL sodium linoleate (16 mM), 50 μL AAPH (40 mM) and 930 μL phosphate-buffered solution (pH 7.4) were added in a UV cuvette (1 mL), pre thermostated at 37 °C. The ability of the compounds to prevent the oxidation of linoleic acid from alkyl peroxyl radicals was evaluated by recording the change of absorbance at 234 nm, due to the conversion of linoleic acid to 13-hydroperoxy-linoleic acid. Trolox was used as the reference.

The nature of data set [3]: MTT cell viability assay, HaCaT. It is filed as cell-based, human. To be noted: human, HaCaT cells (epidermal keratinocyte cell line); for viability at 24 h, 10 μM: 10 μΜ. How it is done: (§1) The MTT (3-(4,5-dimethylthiazol-2-yl)-2,5-diphenyltetrazolium bromide) assay is a colorimetric method that is used for the evaluation of cell viability. MTT is converted into colored formazan crystals, indicating the activity of mitochondria and therefore the viability of the cells. Unlike dead cells, the metabolic processes of living cells are functional, meaning that the dehydrogenase enzymes are able to reduce the yellow MTT salt solution to purple crystals, at 37 °C. The intensity of the sample’s color, due to the amount of formazan crystals, is proportional to the number of the living cells in it. Additionally, the colored product is dissolved in various solubilizing agents, such as dimethyl sulfoxide (DMSO). The colored products can be quantitatively measured at 450 nm with a plate reader spectrophotometer. In this study, the human epidermal keratinocyte cell line (HaCaT) was treated with different concentrations (100 μM, 50 μM, 10 μM and 1 μM) of the tested compounds and then the viability rates at each effect were calculated.
(§2) Τhe MTT assay was used to evaluate cell viability or cell toxicity, depending on the cell line being tested. The experimental procedure was performed in a 96-well plate, where the cells were seeded and incubated (37 °C, 5% CO2) for 24 h to grow and cover the surface of the wells. Τhe seeding concentrations for the HaCaT and A549 cells were 30 × 10^4 cells/mL and 20 × 10^4 cells/mL, respectively. After the first incubation, the solutions of the compounds (with different concentrations) were added to the adherent cells and incubated for another 24 h. The compounds were tested in triplicate against the control (only cells in medium), the blank (only medium) and the positive/negative control (cells in 100 μM silibinin solution) triplicates. Silibinin, a flavonoid with known anticancer activities, was used as a negative control for the cell viability assay and as positive control for the cytotoxicity testing assay. The light-sensitive MTT-standard solution was prepared by dissolving 1 mg/mL MTT in PBS and then filtrated (in a […] filter (Millipore, Carrigtwohill, Ireland)). On the third day, an appropriate amount of ΜΤΤ solution was added to each well and the plate was incubated for 4 h. During the incubation time, the formazan crystals were formed, which were then dissolved with 100 μL DMSO per well. Finally, the plate was stirred for 30 min, and the optical density (OD) was measured in a plate reader spectrophotometer at 450 nm.
A general note: Tetrazolium assays rely on reduction of a dye to a coloured formazan, in cell work by metabolically active cells.

The subject of the next data set is HaCaT cell line. In words: MTT cell viability assay, HaCaT. As to conditions: 100 μΜ, 24 h. The class given is cell-based, human. The protocol:
as §1, §2

In another data set the test system is A549 cell line. Description: MTT cytotoxicity assay, A549. The class given is cell-based, human. As to conditions: Homo sapiens, 24 h; for cytotoxicity at 10 µM: A549, 10 μΜ, read-out: % Cell Toxicity 10 μΜ; for cytotoxicity at 50 µM: A549, 50 μΜ, read-out: % Cell Toxicity 50 μΜ; for cytotoxicity at 100 µM: A549, 100 μΜ, read-out: % Cell Toxicity 100 μΜ. The protocol: The compounds of this study were also tested for their cytotoxic effects against the adenocarcinomic human alveolar basal epithelial cell line (A549) at different concentrations (100 μM, 75 μΜ, 50 μM and 10 μM).
as §2

For `O=C(/C=C/c1ccc(Cl)cc1Cl)c1ccc(Cl)cc1` [Compound 1h, (E)-1-(4-chlorophenyl)-3-(2,4-dichlorophenyl)prop-2-en-1-one], the RM in data set [1] is given as −0.05. The “AAPH % Inhibition 100 μM” value in data set [2] is listed as 2%. In addition, the viability at 24 h, 10 μM in data set [3] was determined as 25.4%. Besides, in the data set with HaCaT cell line, the “% Cell Viability 100 μΜ” value is on record as “no”. For the same molecule, in the data set on A549 cell line, the cytotoxicity at 10 µM amounted to 49.1%, the cytotoxicity at 50 µM was 81.1% and the cytotoxicity at 100 µM came out at 100%.

For the molecule `O=c1[nH]c(=S)[nH]c2nc(-c3ccccc3)cc(-c3ccc(Cl)cc3)c12` [Compound 2e, 5-(4-chlorophenyl)-7-phenyl-2-thioxo-2,3-dihydropyrido [2,3-d]pyrimidin-4(1H)-one], the RM in data set [1] is −0.87. In data set [2], the “AAPH % Inhibition 100 μM” value turned out to be 33%. In data set [3], this molecule showed a viability at 24 h, 10 μM of 22.9%. Besides, the “% Cell Viability 100 μΜ” value in the data set on HaCaT cell line was “no”. In the data set with A549 cell line, the cytotoxicity at 10 µM came out at 48%, the cytotoxicity at 50 µM worked out at 83.9% and the cytotoxicity at 100 µM turned out to be 82.1%.

`O=c1[nH]c(=S)[nH]c2nc(-c3ccc(Cl)cc3)cc(-c3ccc(Cl)cc3Cl)c12` [Compound 2h, 7-(4-chlorophenyl)-5-(2,4-dichlorophenyl)-2-thioxo-2,3-dihydropyrido [2,3-d]pyrimidin-4(1H)-one]: the RM in data set [1] is listed as −0.48. Further, the “AAPH % Inhibition 100 μM” value in data set [2] amounted to 99%. For the same molecule, in data set [3], the viability at 24 h, 10 μM came out at 100%. In data set [3] (50 μΜ), this molecule displayed a viability at 24 h, 50 μM of 89.9%. Moreover, the “% Cell Viability 100 μΜ” value with HaCaT cell line is reported as “no”. Also, in the data set on A549 cell line, the cytotoxicity at 10 µM is 49.1%, the cytotoxicity at 50 µM was 76.9% and the cytotoxicity at 100 µM stood at 100%.
